We go through 17 molecules from PubChem BioAssay AID248 (DTP/NCI, 2004).

Molecules are shown by their SMILES. “And” between values parts separate entries of the source, which are not always exact repeats. Equal values may be shown once. Inconclusive results and toxic doses are left out.

The assay has as its system L1210 leukemia ip in BDF1 mice, survival T/C. In words: NCI In Vivo Anticancer Drug Screen. Data for tumor model L1210 Leukemia (intraperitoneal) in B6D2F1 (BDF1) mice. Particulars: endpoint: mean survival time, higher = longer survival. The procedure, abridged: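 Tumor was transplanted into mice, which were then dosed with test compound or vehicle alone. Survival was recorded for each group, and the treated figure was expressed relative to the control figure.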

Setting [1] is: dose: 100.0 mg/kg/injection, schedule: Q01DX001 (ip), vehicle: Klucel (hydroxypropylcellulose) (HPC).
The mark [2] stands for this setting: dose: 200.0 mg/kg/injection, schedule: Q01DX001 (ip), vehicle: Klucel (hydroxypropylcellulose) (HPC).
Setting [3] is: dose: 50.0 mg/kg/injection, schedule: Q04DX003 (ip), vehicle: saline with Tween-80.
Setting [4] is: dose: 100.0 mg/kg/injection, schedule: Q04DX003 (ip), vehicle: saline.
Setting [5] is: dose: 200.0 mg/kg/injection, schedule: Q04DX003 (ip), vehicle: saline.
Where [6] appears, read: dose: 400.0 mg/kg/injection, schedule: Q04DX003 (ip), vehicle: saline.
[7] abbreviates: dose: 25.0 mg/kg/injection, schedule: Q04DX003 (ip), vehicle: Klucel (hydroxypropylcellulose) (HPC).
[8] abbreviates: dose: 50.0 mg/kg/injection, schedule: Q04DX003 (ip), vehicle: Klucel (hydroxypropylcellulose) (HPC).
Where [9] appears, read: dose: 100.0 mg/kg/injection, schedule: Q04DX003 (ip), vehicle: Klucel (hydroxypropylcellulose) (HPC).
Setting [10] is: dose: 400.0 mg/kg/injection, schedule: Q04DX003 (ip), vehicle: Klucel (hydroxypropylcellulose) (HPC).

For the molecule `O/N=C/c1cccc(CC(O)(C(F)(F)F)C(F)(F)F)n1`, the T/C reads like this: (dose: 50.0 mg/kg/injection, schedule: Q04DX002 (ip), vehicle: saline with Tween-80) 103 % of control; under setting [1], 98 % of control; (dose: 100.0 mg/kg/injection, schedule: Q04DX002 (ip), vehicle: saline with Tween-80) 88 % of control; under setting [2], 98 % of control; (dose: 200.0 mg/kg/injection, schedule: Q04DX002 (ip), vehicle: saline with Tween-80) 109 % of control; (dose: 400.0 mg/kg/injection, schedule: Q01DX001 (ip), vehicle: Klucel (hydroxypropylcellulose) (HPC)) 87 % of control. The T/C (dose: 400.0 mg/kg/injection, schedule: Q04DX002 (ip), vehicle: saline with Tween-80) was 106 % of control.

`CC(C)(C)OOC(=O)C1(F)CC1(c1ccccc1)c1ccccc1` (centres undefined): the T/C is 100 % of control (dose: 50.0 mg/kg/injection, schedule: Q01DX001 (ip), vehicle: Klucel (hydroxypropylcellulose) (HPC)); 100 % of control under setting [1]; 109 % of control under setting [2].

In the case of `CCOC(=O)C(C(C)=O)C1c2ccccc2Nc2ccccc21` (centres undefined), the T/C reads like this: (dose: 50.0 mg/kg/injection, schedule: Q01DX009 (ip), vehicle: saline with Tween-80) 98 % of control; (dose: 100.0 mg/kg/injection, schedule: Q01DX009 (ip), vehicle: saline with Tween-80) 109 % of control; (dose: 200.0 mg/kg/injection, schedule: Q01DX009 (ip), vehicle: saline with Tween-80) 106 % of control.

Turning to `COc1ccc(OC)c2c1CCCC2=O`, the T/C is 96 % of control (dose: 50.0 mg/kg/injection, schedule: Q01DX001 (ip), vehicle: saline); 99 % of control (dose: 100.0 mg/kg/injection, schedule: Q01DX001 (ip), vehicle: saline); 91 % of control (dose: 200.0 mg/kg/injection, schedule: Q01DX001 (ip), vehicle: saline); 96 % of control (dose: 400.0 mg/kg/injection, schedule: Q01DX001 (ip), vehicle: saline).

As to `Cc1cc(C)c(C#[N+][O-])c(C)c1`, the T/C is 93 % of control (dose: 25.0 mg/kg/injection, schedule: Q04DX003 (ip), vehicle: saline with Tween-80) and 98 % of control under setting [3].

Take `c1ccc(-c2c[n+]3cc4ccccc4cc3cn2)cc1`: the T/C is, setting by setting: (dose: 100.0 mg/kg/injection, schedule: Q01DX009 (ip), vehicle: saline) 91 % of control; under setting [4], 100 % of control; (dose: 200.0 mg/kg/injection, schedule: Q01DX009 (ip), vehicle: saline) 96 % of control; under setting [5], 96 % of control; (dose: 400.0 mg/kg/injection, schedule: Q01DX009 (ip), vehicle: saline) 97 % of control; under setting [6], 98 % of control.

On to `O=C(O)CC1(O)CCCC1`, for which the T/C (dose: 25.0 mg/kg/injection, schedule: Q04DX003 (ip), vehicle: saline) was 100 % of control; the T/C (dose: 50.0 mg/kg/injection, schedule: Q04DX003 (ip), vehicle: saline) was 96 % of control; the T/C under setting [4] is 107 % of control.

For the molecule `Clc1ccc(SCN2CCCCC2)cc1`, the T/C by setting is: under setting [7], 93 % of control; under setting [8], 95 % of control; under setting [9], 93 % of control and 95 % of control.

On to `CCOC(=O)Nc1cncc(NC(=O)OCC)n1`, for which the T/C runs as follows: (dose: 6.25 mg/kg/injection, schedule: Q01DX009 (ip), vehicle: water) 96 % of control; (dose: 12.5 mg/kg/injection, schedule: Q01DX009 (ip), vehicle: water) 90 % of control; (dose: 25.0 mg/kg/injection, schedule: Q01DX009 (ip), vehicle: water) 117 % of control and 91 % of control; (dose: 50.0 mg/kg/injection, schedule: Q01DX009 (ip), vehicle: water) 93 % of control and 91 % of control; (dose: 100.0 mg/kg/injection, schedule: Q01DX009 (ip), vehicle: water) 96 % of control and 101 % of control; (dose: 200.0 mg/kg/injection, schedule: Q01DX009 (ip), vehicle: water) 111 % of control.

For the molecule `C/C(=C(/CCO)SCC/C(=N/O)c1ccccc1)N(C=O)Cc1cnc(C)nc1N`, the T/C is, setting by setting: under setting [4], 104 % of control; under setting [5], 97 % of control; under setting [6], 93 % of control.

Take `O=C1CC2CCC1C2Cl` (centres undefined): the T/C under setting [3] was 86 % of control; the T/C (dose: 100.0 mg/kg/injection, schedule: Q01DX001 (ip), vehicle: saline with Tween-80) is 97 % of control; the T/C (dose: 200.0 mg/kg/injection, schedule: Q01DX001 (ip), vehicle: saline with Tween-80) was 89 % of control.

As to `CC[n+]1ccccc1-c1ccc(NC(=O)c2ccc(C(=O)Nc3ccc(-c4ccccn4)cc3)cc2)cc1`, the T/C (dose: 0.75 mg/kg/injection, schedule: Q01DX Z (ip), vehicle: saline) is 120 % of control; the T/C (dose: 2.6 mg/kg/injection, schedule: Q01DX Z (ip), vehicle: saline) was 194 % of control and 213 % of control; the T/C (dose: 2.9 mg/kg/injection, schedule: Q01DX001 (ip), vehicle: saline) is 116 % of control; the T/C (dose: 4.0 mg/kg/injection, schedule: Q01DX Z (ip), vehicle: saline) was 176 % of control; the T/C (dose: 4.4 mg/kg/injection, schedule: Q01DX001 (ip), vehicle: saline) is 124 % of control; the T/C (dose: 6.0 mg/kg/injection, schedule: Q01DX Z (ip), vehicle: saline) is 170 % of control. Further, the T/C is 103 % of control (dose: 7.0 mg/kg/injection, schedule: Q01DX Z (oral), vehicle: saline); 100 % of control (dose: 14.0 mg/kg/injection, schedule: Q01DX Z (ip), vehicle: saline); 100 % of control (dose: 15.0 mg/kg/injection, schedule: Q01DX Z (oral), vehicle: saline); 164 % of control (dose: 20.0 mg/kg/injection, schedule: Q01DX001 (ip), vehicle: saline); 102 % of control (dose: 22.0 mg/kg/injection, schedule: Q01DX Z (ip), vehicle: saline); 102 % of control (dose: 30.0 mg/kg/injection, schedule: Q01DX Z (oral), vehicle: saline). For the same molecule, the T/C (dose: 35.0 mg/kg/injection, schedule: Q01DX Z (ip), vehicle: saline) was 88 % of control; the T/C (dose: 40.0 mg/kg/injection, schedule: Q01DX001 (ip), vehicle: saline) is 153 % of control and 191 % of control.

As for `O=C(OCCO)c1ccccc1O`, the T/C was 102 % of control (dose: 75.0 mg/kg/injection, schedule: Q01DX009 (ip), vehicle: saline sonified); 102 % of control under setting [4]; 116 % of control (dose: 150.0 mg/kg/injection, schedule: Q01DX009 (ip), vehicle: saline sonified); 98 % of control under setting [5]; 108 % of control (dose: 300.0 mg/kg/injection, schedule: Q01DX009 (ip), vehicle: saline sonified); 102 % of control under setting [6].

For the molecule `Cc1cc(C)c(OCC2CO2)c(C)c1` (centres undefined), the T/C is, setting by setting: under setting [9], 105 % of control; (dose: 200.0 mg/kg/injection, schedule: Q04DX003 (ip), vehicle: Klucel (hydroxypropylcellulose) (HPC)) 95 % of control; under setting [10], 89 % of control.

Take `O=C(OC1(c2ccccc2)CC2CC1c1ccccc12)c1ccc([N+](=O)[O-])cc1` (centres undefined): the T/C runs as follows: (dose: 50.0 mg/kg/injection, schedule: Q01DX001 (ip), vehicle: carboxymethylcellulose (CMC)) 88 % of control; (dose: 100.0 mg/kg/injection, schedule: Q01DX001 (ip), vehicle: carboxymethylcellulose (CMC)) 95 % of control; (dose: 200.0 mg/kg/injection, schedule: Q01DX001 (ip), vehicle: carboxymethylcellulose (CMC)) 95 % of control.

On to `COc1ccccc1N=Nc1c(O)n(-c2ccccc2C)c(=S)n(-c2ccccc2)c1=O`, for which the T/C by setting is: under setting [7], 107 % of control; under setting [8], 105 % of control; under setting [1], 101 % of control; under setting [9], 107 % of control; under setting [2], 95 % of control.

In the case of `O=C(CNC(=O)C(CSCc1ccccc1)NC(=O)OCc1ccccc1)OCc1ccccc1` (centres undefined), the T/C is 92 % of control (dose: 25.0 mg/kg/injection, schedule: Q01DX009 (ip), vehicle: gum acacia); 87 % of control (dose: 50.0 mg/kg/injection, schedule: Q01DX009 (ip), vehicle: gum acacia); 94 % of control (dose: 100.0 mg/kg/injection, schedule: Q01DX009 (ip), vehicle: gum acacia); 89 % of control under setting [9]; 99 % of control under setting [10].
